# Experimental data published in US20190231748A1, “COMPOSITION FOR VAGINA AND ANTIMICROBIAL AGENT COMBINATION FOR USE IN PREPARING COMPOSITION FOR VAGINA” (Shenzhen Eulikan Biotechnology Co., Ltd., priority 2016, published 2019).
# Tests used:
# Type in all cases: cell-based
# Lactococcus lactis = assay: Gram-stained smear of co-culture gel, Gram-positive cocci (G+c); details: for Smear G^+c: cultivated 32 hours
# Source text: (§1) 2.1 Experimental strains: one Lactococcus lactis strain and one Lactobacillus jensenii strain, both were clinical isolates.
# (§2) The pH value was adjusted to 5.0.
# (§3) 2.4 Experimental procedure: the test gel tubes containing different concentrations of antimicrobial agents, as shown in Tables 1 to 6 were inoculated with 100 microliters of Lactobacillus lactis suspension and 100 microliters of Lactobacillus jensenii suspension at the same time. The turbidities of both suspensions were 0.5 MCF. Then the tubes were cultivated at 37° C. and under 5 percent CO2 for 32 hours. Then the changes of the pH values of gels were tested. The gels were smeared, Gram stained, and microscopically examined for the morphology and quantity of bacteria.
# Lactobacillus jensenii = assay: Gram-stained smear of co-culture gel, Gram-positive rods (G+b); details: for Smear G^+b: cultivated 32 hours
# Source text: as §1, §2, §3
# [1] = tested on: Lactococcus lactis and Lactobacillus jensenii; assay: pH of test gel after co-culture of Lactococcus lactis and Lactobacillus jensenii; details: cultivated 32 hours
# Source text: as §1, §2, §3
# [2] = tested on: nine strains of Candida albicans; assay: Growth of Candida in enrichment broth after 24 hours, clinical strains; parameters: key to growth of Candida albicans, strain 1 / growth of Candida albicans, strain 2 / growth of Candida albicans, strain 3 / growth of Candida albicans, strain 4 / growth of Candida albicans, strain 5 / growth of Candida albicans, strain 6 / growth of Candida albicans, strain 7 / growth of Candida albicans, strain 8 / growth of Candida albicans, strain 9: +: means the growth of organisms; −: means no growth of organisms; details: enrichment broth, 37° C. for 24 hours
# Source text: b. Enrichment broth: which contained 1 percent of yeast extract powder, 9 percent of sucrose, 0.025 percent of manganese sulfate (MnSO4.4H2O), 0.058 percent of magnesium sulfate (MgSO4.7H2O), and 0.9 percent of lactic acid, the pH value of the broth was adjusted to 4.5, and the enrichment broth was sterilized for later use;
# (2) Experimental groups: the requirements of aseptic operation technique were strictly followed so to prepare the sterile test tubes;
# a. sodium benzoate group: each test tube contained 5 milliliters enrichment broth, and was added in 0.025 percent (weight/volume) of sodium benzoate;
# b. 2-phenylethanol group: each test tube contained 5 milliliters enrichment broth, and was added in 0.050 percent (weight/volume) of 2-phenylethanol;
# c. sodium propionate group: each test tube contained 5 milliliters enrichment broth, and was added in 0.125 percent (weight/volume) of sodium propionate;
# d. “a group of the combinations of sodium benzoate and sodium propionate”: each test tube contained 5 milliliters enrichment broth, and was added in 0.025 percent (weight/volume) of sodium benzoate and 0.125 percent (weight/volume) of sodium propionate;
# e. “a group of the combinations of sodium benzoate and 2-phenylethanol”: each test tube contained 5 milliliters enrichment broth, and was added in 0.025 percent (weight/volume) of sodium benzoate and 0.050 percent (weight/volume) of 2-phenylethanol;
# f. “a group of the combinations of sodium propionate and 2-phenylethanol”: each test tube contained 5 milliliters enrichment broth, and was added in 0.125 percent (weight/volume) of sodium propionate and 0.050 percent (weight/volume) of 2-phenylethanol;
# g. “a group of the combinations of sodium benzoate, sodium propionate and 2-phenylethanol”: each test tube contained 5 milliliters enrichment broth, and was added in 0.025 percent (weight/volume) of sodium benzoate, 0.125 percent (weight/volume) of sodium propionate and 0.050 percent (weight/volume) of 2-phenylethanol;
# h. positive control: the control tube of enrichment broth without adding in 2-phenylethanol, sodium benzoate, and sodium propionate; but inoculated the suspension of Candida albicans;
# i. negative control: the control tube of enrichment broth without adding in 2-phenylethanol, sodium benzoate, and sodium propionate; and without inoculating Candida albicans;
# The requirements for aseptic operation technique were strictly followed to prepare the suspension of organism. The colonies of each strain of Candida albicans organism were diluted with physiological saline respectively. The turbidities of the suspensions of Candida albicans organism were adjusted to 0.5 MCF (about 10^8 CFU/ml) by a turbidimeter. 1 milliliter of the 0.5 MCF organism suspension was added into 9 milliliters of enrichment broth. Each suspension was diluted for ten times to contain 10^7 CFU/ml of organisms.
# the requirements for aseptic technique were strictly followed to take 100 microliters of the prepared organism suspension respectively and to add the suspension into the test tubes from a to h as well as the positive control tube. No organism suspension was added into the negative control tube i.
# The above tubes were cultured in a biochemical incubator at 37° C. for 24 hours. Then the growth of Candida in each tube was observed and recorded.
# Remark: “+” means the growth of organisms; “−” means no growth of organisms.
smiles,measurement,setting,value
CCCCCCCC(=O)[O-].[Na+] [sodium octanoate],Smear G^+c,Lactococcus lactis; 0.010 % in test gel,G^+c++++
same,inhibition effect on the growth of Lactococcus lactis,Lactococcus lactis; 0.010 to 0.020 percent,little inhibition effect
same,Smear G^+c,Lactococcus lactis; 0.015 % in test gel,G^+c++++
same,Smear G^+c,Lactococcus lactis; 0.020 % in test gel,G^+c++++
same,inhibiting effect on Lactococcus lactis,Lactococcus lactis; 0.05 percent,stronger inhibiting effect
same,Smear G^+b,Lactobacillus jensenii; 0.010 % in test gel,G^+b+
same,Smear G^+b,Lactobacillus jensenii; 0.015 % in test gel,G^+b+
same,Smear G^+b,Lactobacillus jensenii; 0.020 % in test gel,G^+b+
same,inhibiting effect on lactobacillus,Lactobacillus jensenii; 0.05 percent,stronger inhibiting effect
same,pH value,[1]; 0.010 % in test gel,<3.8
same,pH value,[1]; 0.015 % in test gel,<3.8
same,pH value,[1]; 0.020 % in test gel,3.8
same,pH value,[1]; 0.05 % in test gel,4.8
O=C([O-])c1ccccc1.[Na+] [d. 0.025% sodium benzoate],"growth of Candida albicans, strain 1",[2],+
same,"growth of Candida albicans, strain 2",[2],+
same,"growth of Candida albicans, strain 3",[2],+
same,"growth of Candida albicans, strain 4",[2],+
same,"growth of Candida albicans, strain 5",[2],+
same,"growth of Candida albicans, strain 6",[2],+
same,"growth of Candida albicans, strain 7",[2],+
same,"growth of Candida albicans, strain 8",[2],+
same,"growth of Candida albicans, strain 9",[2],+
OCCc1ccccc1 [e. 0.050% 2-phenylethanol],"growth of Candida albicans, strain 1",[2],−
same,"growth of Candida albicans, strain 2",[2],+
same,"growth of Candida albicans, strain 3",[2],+
same,"growth of Candida albicans, strain 4",[2],+
same,"growth of Candida albicans, strain 5",[2],+
same,"growth of Candida albicans, strain 6",[2],+
same,"growth of Candida albicans, strain 7",[2],−
same,"growth of Candida albicans, strain 8",[2],+
same,"growth of Candida albicans, strain 9",[2],+
CC(=O)[O-].[Na+] [sodium acetate],Smear G^+c,Lactococcus lactis; 0.1 % in test gel,G^+c++
same,inhibition effect on the growth of Lactococcus lactis,Lactococcus lactis; 0.1 to 0.8 percent,little inhibition effect
same,Smear G^+c,Lactococcus lactis; 0.2 % in test gel,G^+c++
same,Smear G^+c,Lactococcus lactis; 0.3 % in test gel,G^+c++
same,Smear G^+c,Lactococcus lactis; 0.4 % in test gel,G^+c++
same,Smear G^+c,Lactococcus lactis; 0.5 % in test gel,G^+c++
same,Smear G^+c,Lactococcus lactis; 0.6 % in test gel,G^+c++
same,Smear G^+c,Lactococcus lactis; 0.7 % in test gel,G^+c++
same,Smear G^+c,Lactococcus lactis; 0.8 % in test gel,G^+c++
same,Smear G^+b,Lactobacillus jensenii; 0.1 % in test gel,G^+b+
same,Smear G^+b,Lactobacillus jensenii; 0.2 % in test gel,G^+b+
same,Smear G^+b,Lactobacillus jensenii; 0.3 % in test gel,G^+b+
same,Smear G^+b,Lactobacillus jensenii; 0.4 % in test gel,G^+b+
same,Smear G^+b,Lactobacillus jensenii; 0.5 % in test gel,G^+b+
same,Smear G^+b,Lactobacillus jensenii; 0.6 % in test gel,G^+b+
same,Smear G^+b,Lactobacillus jensenii; 0.7 % in test gel,G^+b+
same,Smear G^+b,Lactobacillus jensenii; 0.8 % in test gel,G^+b+
same,pH value,[1]; 0.1 % in test gel,<3.8
same,pH value,[1]; 0.2 % in test gel,<3.8
same,pH value,[1]; 0.3 % in test gel,<3.8
same,pH value,[1]; 0.4 % in test gel,<3.8
same,pH value,[1]; 0.5 % in test gel,<3.8
same,pH value,[1]; 0.6 % in test gel,3.8
same,pH value,[1]; 0.7 % in test gel,3.8
same,pH value,[1]; 0.8 % in test gel,3.8-4.1
